Test results as given in patent US9637469B2, “Pyridine derivative” (Teijin Pharma Limited, priority 2012, dated 2017).

Molecular target: T1, human URAT1 (Homo sapiens, UniProt Q96S37)
T1 construct: Full-length cDNA of human URAT1 (hURAT1)
T1 sequence (Q96S37 1-553): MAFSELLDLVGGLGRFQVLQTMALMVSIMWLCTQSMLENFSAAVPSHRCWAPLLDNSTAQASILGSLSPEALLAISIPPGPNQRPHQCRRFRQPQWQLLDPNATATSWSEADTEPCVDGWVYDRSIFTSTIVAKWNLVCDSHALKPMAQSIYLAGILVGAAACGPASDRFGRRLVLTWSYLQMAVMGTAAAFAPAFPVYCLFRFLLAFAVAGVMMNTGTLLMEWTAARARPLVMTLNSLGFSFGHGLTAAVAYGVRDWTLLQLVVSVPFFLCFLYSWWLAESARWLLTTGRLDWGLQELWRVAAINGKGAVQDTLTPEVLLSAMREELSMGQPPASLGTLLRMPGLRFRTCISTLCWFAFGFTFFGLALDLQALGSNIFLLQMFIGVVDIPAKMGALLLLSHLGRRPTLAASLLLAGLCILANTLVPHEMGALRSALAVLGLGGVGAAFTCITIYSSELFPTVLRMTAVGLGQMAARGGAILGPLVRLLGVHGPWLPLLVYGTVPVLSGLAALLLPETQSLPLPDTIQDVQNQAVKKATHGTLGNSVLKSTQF
Test: Test for inhibition of uric acid transport using human URAT1-expressing cells;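 further: three stars up to 0.2 µM two stars 0.2-2 µM one star 2-20 µM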
Assay type: cell-based
Conditions: HEK 293 cells expressing human URAT1, 14C-labeled uric acid 25 μM, uptake 37° C. for 5 min; for IC50: read-out: Inhibitory Activity (IC50 of uric acid transport inhibition)
Procedure, shortened: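 HEK293 cells stably transfected with full-length hURAT1, preincubated 10 min at 37 °C in HBSS with NaCl replaced by Na gluconate. Uptake of 25 μM ¹⁴C-uric acid with compound ran 5 min at 37 °C, then scintillation counting. IC50 derived from % of DMSO-control URAT1-specific uptake.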

| Inhibitory Activity (IC50 of uric acid transport inhibition) | IC50 [µM] | SMILES |
| --- | --- | --- |
| * * * | – | CCc1nc(-c2cncc(Cl)c2)n(Cc2cccc3ccccc23)c1C(=O)O [Compound A149, 2-(5-chloropyridin-3-yl)-4-ethyl-1-(naphthalen-1-ylmethyl)-1H-imidazole-5-carboxylic acid] |
| * * * | – | CCc1nc(-c2cncc(F)c2)n(Cc2cc(Cl)ccc2Cl)c1C(=O)O [Compound A150, 1-(2,5-dichlorobenzyl)-4-ethyl-2-(5-fluoropyridin-3-yl)-1H-imidazole-5-carboxylic acid] |
| * * * | – | CCc1nc(-c2cncc(Cl)c2)n(Cc2cc(Cl)ccc2Cl)c1C(=O)O [Compound A151, 2-(5-chloropyridin-3-yl)-1-(2,5-dichlorobenzyl)-4-ethyl-1H-imidazole-5-carboxylic acid] |
| * * | – | CC(C)c1nc(-c2cncc(F)c2)n(Cc2cccc3ccccc23)c1C(=O)O [Compound A152, 2-(5-fluoropyridin-3-yl)-4-isopropyl-1-(naphthalen-1-ylmethyl)-1H-imidazole-5-carboxylic acid] |
| * * | – | O=C(O)c1c(C2CC2)nc(-c2cncc(F)c2)n1Cc1cccc2ccccc12 [Compound A153, 4-cyclopropyl-2-(5-fluoropyridin-3-yl)-1-(naphthalen-1-ylmethyl)-1H-imidazole-5-carboxylic acid] |
| * * * | – | CC(C)c1nc(-c2cncc(F)c2)n(Cc2cc(Cl)ccc2Cl)c1C(=O)O [Compound A154, 1-(2,5-dichlorobenzyl)-2-(5-fluoropyridin-3-yl)-4-isopropyl-1H-imidazole-5-carboxylic acid] |
| * * * | – | O=C(O)c1c(C2CC2)nc(-c2cncc(F)c2)n1Cc1cc(Cl)ccc1Cl [Compound A155, 4-cyclopropyl-1-(2,5-dichlorobenzyl)-2-(5-fluoropyridin-3-yl)-1H-imidazole-5-carboxylic acid] |
| * * * | – | COc1cncc(-c2nc(C)c(C(=O)O)n2Cc2cc(Cl)ccc2Cl)c1 [Compound A157, 1-(2,5-dichlorobenzyl)-2-(5-methoxypyridin-3-yl)-4-methyl-1H-imidazole-5-carboxylic acid] |
| * * | – | Cc1nc(-c2cncc(C#N)c2)n(Cc2cc(Cl)ccc2Cl)c1C(=O)O [Compound A158, 2-(5-cyanopyridin-3-yl)-1-(2,5-dichlorobenzyl)-4-methyl-1H-imidazole-5-carboxylic acid] |
| * * | – | Cc1ccc(-c2nc(C)c(C(=O)O)n2Cc2cc(Cl)ccc2Cl)cn1 [Compound A159, 1-(2,5-dichlorobenzyl)-4-methyl-2-(6-methylpyridin-3-yl)-1H-imidazole-5-carboxylic acid] |
| * * | – | Cc1nc(-c2cccnc2F)n(Cc2cc(Cl)ccc2Cl)c1C(=O)O [Compound A160, 1-(2,5-dichlorobenzyl)-2-(2-fluoropyridin-3-yl)-4-methyl-1H-imidazole-5-carboxylic acid] |
| * * | – | COc1ccc(-c2nc(C)c(C(=O)O)n2Cc2cc(Cl)ccc2Cl)cn1 [Compound A161, 1-(2,5-dichlorobenzyl)-2-(6-methoxypyridin-3-yl)-4-methyl-1H-imidazole-5-carboxylic acid] |
| * * | – | COc1ncccc1-c1nc(C)c(C(=O)O)n1Cc1cc(Cl)ccc1Cl [Compound A162, 1-(2,5-dichlorobenzyl)-2-(2-methoxypyridin-3-yl)-4-methyl-1H-imidazole-5-carboxylic acid] |
| – | 2 to 20 | Cc1nc(-c2ccc(N(C)C)nc2)n(Cc2cc(Cl)ccc2Cl)c1C(=O)O [Compound A163] |
| * * | – | Cc1nc(-c2ccc(Cl)nc2)n(Cc2cc(Cl)ccc2Cl)c1C(=O)O [Compound A164, 2-(6-chloropyridin-3-yl)-1-(2,5-dichlorobenzyl)-4-methyl-1H-imidazole-5-carboxylic acid] |
| – | 2 to 20 | Cc1nc(-c2cncc([S+](C)(=O)[O-])c2)n(Cc2cc(Cl)ccc2Cl)c1C(=O)O [Compound A165] |

| Inhibitory Activity (IC50 of uric acid transport inhibition) | IC50 [µM] | SMILES |
| --- | --- | --- |
| * * * | – | Cc1nc(-c2cncc(N3CCCC3)c2)n(Cc2cc(Cl)ccc2Cl)c1C(=O)O [Compound A166, 1-(2,5-dichlorobenzyl)-4-methyl-2-(5-(pyrrolidin-1-yl)pyridin-3-yl)-1H-imidazole-5-carboxylic acid] |
| * * * | – | Cc1nc(-c2cncc([N+](=O)[O-])c2)n(Cc2cc(Cl)ccc2Cl)c1C(=O)O [Compound A167, 1-(2,5-dichlorobenzyl)-4-methyl-2-(5-nitropyridin-3-yl)-1H-imidazole-5-carboxylic acid] |
| * * * | – | Cc1nc(-c2cncc(C3CC3)c2)n(Cc2cc(Cl)ccc2Cl)c1C(=O)O [Compound A168, 2-(5-cyclopropylpyridin-3-yl)-1-(2,5-dichlorobenzyl)-4-methyl-1H-imidazole-5-carboxylic acid] |
| * * | – | Cc1nc(-c2cncc(F)c2)n(Cc2cc(C(F)(F)F)ccc2C(F)(F)F)c1C(=O)O [Compound A170, 1-(2,5-bis(trifluoromethyl)benzyl)-2-(5-fluoropyridin-3-yl)-4-methyl-1H-imidazole-5-carboxylic acid] |
| * * * | – | O=C(O)c1cnc(-c2cncc(F)c2)n1Cc1cc(Cl)ccc1Cl [Compound A171, 1-(2,5-dichlorobenzyl)-2-(5-fluoropyridin-3-yl)-1H-imidazole-5-carboxylic acid] |
| * * | – | Cc1nc(-c2cncc(O)c2)n(Cc2cc(Cl)ccc2Cl)c1C(=O)O [Compound A172, 1-(2,5-dichlorobenzyl)-2-(5-hydroxypyridin-3-yl)-4-methyl-1H-imidazole-5-carboxylic acid] |
| * * * | – | Cc1nc(-c2cncc(Cl)c2)n(Cc2cc(C(F)(F)F)ccc2C(F)(F)F)c1C(=O)O [Compound A173, 1-(2,5-bis(trifluoromethyl)benzyl)-2-(5-chloropyridin-3-yl)-4-methyl-1H-imidazole-5-carboxylic acid] |
| * * * | – | CCOc1cncc(-c2nc(C)c(C(=O)O)n2Cc2cc(Cl)ccc2Cl)c1 [Compound A174, 1-(2,5-dichlorobenzyl)-2-(5-ethoxypyridin-3-yl)-4-methyl-1H-imidazole-5-carboxylic acid] |
| * * | – | Cc1nc(-c2cncc(OC(C)C)c2)n(Cc2cc(Cl)ccc2Cl)c1C(=O)O [Compound A175, 1-(2,5-dichlorobenzyl)-2-(5-isopropoxypyridin-3-yl)-4-methyl-1H-imidazole-5-carboxylic acid] |
| * * * | – | Cc1nc(-c2cncc(-c3ccccc3)c2)n(Cc2cc(Cl)ccc2Cl)c1C(=O)O [Compound A176, 1-(2,5-dichlorobenzyl)-4-methyl-2-(5-phenylpyridin-3-yl)-1H-imidazole-5-carboxylic acid] |
| * * * | – | Cc1nc(-c2cncc(Br)c2)n(Cc2cc(Cl)ccc2Cl)c1C(=O)O [Compound A177, 2-(5-bromopyridin-3-yl)-1-(2,5-dichlorobenzyl)-4-methyl-1H-imidazole-5-carboxylic acid] |
| * * | – | Cc1ccc(C)c(Cn2c(-c3cncc(F)c3)nc(C)c2C(=O)O)c1 [Compound A178, 1-(2,5-dimethylbenzyl)-2-(5-fluoropyridin-3-yl)-4-methyl-1H-imidazole-5-carboxylic acid] |
| * * * | – | Cc1ccc(C)c(Cn2c(-c3cncc(Cl)c3)nc(C)c2C(=O)O)c1 [Compound A179, 2-(5-chloropyridin-3-yl)-1-(2,5-dimethylbenzyl)-4-methyl-1H-imidazole-5-carboxylic acid] |
| * * * | – | Cc1cncc(-c2nc(C)c(C(=O)O)n2Cc2cc(C)ccc2C)c1 [Compound A180, 1-(2,5-dimethylbenzyl)-4-methyl-2-(5-methylpyridin-3-yl)-1H-imidazole-5-carboxylic acid] |
| * * * | – | CCc1cncc(-c2nc(C)c(C(=O)O)n2Cc2cc(Cl)ccc2Cl)c1 [Compound A181, 1-(2,5-dichlorobenzyl)-2-(5-ethylpyridin-3-yl)-4-methyl-1H-imidazole-5-carboxylic acid] |
| * * * | – | CSc1cncc(-c2nc(C)c(C(=O)O)n2Cc2cc(Cl)ccc2Cl)c1 [Compound A182, 1-(2,5-dichlorobenzyl)-4-methyl-2-(5-(methylthio)pyridin-3-yl)-1H-imidazole-5-carboxylic acid] |
